Test results as given in ChEMBL document CHEMBL5120837, “Synthesis and biological evaluation of conformationally restricted GluN2B ligands derived from eliprodil” (Eur J Med Chem, 2022).

Legend:
[1] = Displacement of [3H]ifenprodil from recombinant human GluN1A/GluN2B expressed in mouse L-M(TK-) cell membranes after 120 mins by microbeta scintillation counting method; set-up: species or system Membrane
[2] = molecular target: Sigma non-opioid intracellular receptor 1 (Cavia porcellus, UniProt Q60492); assay: Displacement of [3H]-(+)-pentazocine from sigma1 receptor in guinea pig brain cortex membranes measured after 120 mins by scintillation counting method; format: cell membranes, Cerebral cortex, Membrane
Sigma non-opioid intracellular receptor 1, sequence (Q60492 whole entry): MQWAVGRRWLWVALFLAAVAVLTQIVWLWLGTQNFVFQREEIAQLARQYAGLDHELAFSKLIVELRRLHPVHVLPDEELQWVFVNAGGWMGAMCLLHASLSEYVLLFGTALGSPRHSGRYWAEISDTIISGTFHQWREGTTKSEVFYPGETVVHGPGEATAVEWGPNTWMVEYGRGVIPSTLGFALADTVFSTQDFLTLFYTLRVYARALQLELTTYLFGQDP

[3] = molecular target: T1, Sigma intracellular receptor 2 (Rattus norvegicus, UniProt Q5U3Y7); assay: Displacement of [3H]-DTG from sigma 2 receptor in rat liver membrane measured after 120 mins by microbeta counting analysis; format: cell membranes
T1 sequence (Q5U3Y7 whole entry): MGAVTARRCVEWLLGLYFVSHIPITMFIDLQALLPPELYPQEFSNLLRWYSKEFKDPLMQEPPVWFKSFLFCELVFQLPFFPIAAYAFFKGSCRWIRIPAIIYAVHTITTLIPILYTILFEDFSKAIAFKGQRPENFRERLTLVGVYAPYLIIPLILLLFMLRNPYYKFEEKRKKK

Oocyte = assay: Antagonist activity at GluN1a/GluN2B NMDA receptor (unknown origin) expressed in Xenopus oocytes assessed as inhibition of glycine and (S)-glutamate-induced ion channel activation at 1 uM at -70 mV holding potential by two-electrode voltage clamp method relative to control; format: cell-based; conditions: Homo sapiens

Row | Structure (SMILES) | Ki [1] | Ki [2] | Ki [3] | inhibition (Oocyte)
1 | O[C@H](CN1[C@@H]2CC[C@H]1C[C@H](Cc1ccc(F)cc1)C2)c1ccccc1 | 1.9 nM | 2.1 nM | 11 nM | 3.1%
2 | O[C@H](CN1[C@@H]2CC[C@H]1C/C(=C/c1ccc(Cl)cc1)C2)c1ccccc1 | 20 nM | 9 nM | 47 nM | –
3 | O[C@@H](CN1[C@@H]2CC[C@H]1C[C@@H](Cc1ccc(F)cc1)C2)c1ccccc1 | 0.7 nM | 0.9 nM | 22 nM | 8.7%
4 | O[C@H](CN1[C@@H]2CC[C@H]1C/C(=C\c1ccccc1)C2)c1ccccc1 | 1.8 nM | 0.8 nM | 12 nM | –
5 | O[C@H](CN1[C@@H]2CC[C@H]1C/C(=C\c1ccc(Cl)cc1)C2)c1ccccc1 | 4.4 nM | 1.9 nM | 30 nM | –
6 | O[C@@H](CN1[C@@H]2CC[C@H]1C[C@H](Cc1ccc(F)cc1)C2)c1ccccc1 | 17 nM | 7 nM | 23 nM | 5.4%
7 | O[C@H](CN1[C@@H]2CC[C@H]1C[C@@H](Cc1ccc(F)cc1)C2)c1ccccc1 | 17 nM | 2.6 nM | 19 nM | 2.3%
8 | O[C@H](CN1[C@@H]2CC[C@H]1C[C@H](Cc1ccccc1)C2)c1ccccc1 (mixture of isomers) | 2.4 nM | 1.9 nM | 11 nM | –
9 | O[C@@H](CN1[C@@H]2CC[C@H]1C[C@@H](Cc1ccc(F)cc1)C2)c1ccc(F)cc1 | 0.8 nM | 1.2 nM | 5.9 nM | –
10 | O[C@@H](CN1[C@@H]2CC[C@H]1C[C@@H](Cc1ccccc1)C2)c1ccc(F)cc1 | 1.7 nM | 0.7 nM | 6 nM | –
11 | O[C@@H](CN1[C@@H]2CC[C@H]1C/C(=C/c1ccccc1)C2)c1ccccc1 | 34 nM | 6 nM | 101 nM | –
12 | O[C@@H](CN1[C@@H]2CC[C@H]1C[C@H](Cc1ccccc1)C2)c1ccc(F)cc1 | 5.2 nM | 6.7 nM | 10 nM | –
13 | O[C@H](CN1[C@@H]2CC[C@H]1C/C(=C/c1ccccc1)C2)c1ccccc1 | 21 nM | 11 nM | 27 nM | –
14 | O[C@H](CN1[C@@H]2CC[C@H]1C/C(=C/c1ccc(F)cc1)C2)c1ccccc1 | 9.3 nM | 6.6 nM | 27 nM | 1.5%
15 | O[C@H](CN1[C@@H]2CC[C@H]1C/C(=C\c1ccc(F)cc1)C2)c1ccccc1 | 2.9 nM | 0.45 nM | 11 nM | 1.7%
16 | C[C@H]([C@H](O)c1ccc(O)cc1)N1CCC(Cc2ccccc2)CC1 | 5.8 nM | – | – | –
17 | O[C@@H](CN1[C@@H]2CC[C@H]1C/C(=C/c1ccc(F)cc1)C2)c1ccc(F)cc1 | 7 nM | 28 nM | 21 nM | –
18 | O[C@@H](CN1[C@@H]2CC[C@H]1C/C(=C/c1ccc(F)cc1)C2)c1ccccc1 | 16 nM | – | – | -0.9%
19 | O[C@@H](CN1[C@@H]2CC[C@H]1C[C@@H](Cc1ccccc1)C2)c1ccccc1 | 2.1 nM | 1.3 nM | 9 nM | –
20 | O[C@H](CN1[C@@H]2CC[C@H]1C[C@@H](Cc1ccccc1)C2)c1ccccc1 | 15 nM | 4.5 nM | 10 nM | –
21 | OC(CN1CCC(Cc2ccc(F)cc2)CC1)c1ccc(Cl)cc1 (stereo not drawn) [ELIPRODIL] | 13 nM | – | – | –
22 | O[C@@H](CN1[C@@H]2CC[C@H]1C/C(=C/c1ccc(Cl)cc1)C2)c1ccccc1 | 13 nM | 18 nM | 22 nM | –
23 | O[C@@H](CN1[C@@H]2CC[C@H]1C/C(=C\c1ccccc1)C2)c1ccc(F)cc1 | 1.4 nM | – | 11 nM | –
24 | O[C@@H](CN1[C@@H]2CC[C@H]1C/C(=C\c1ccc(F)cc1)C2)c1ccccc1 | 3 nM | – | – | 1.3%
25 | O[C@@H](CN1[C@@H]2CC[C@H]1C/C(=C\c1ccc(F)cc1)C2)c1ccc(F)cc1 | 1 nM | 0.9 nM | 15 nM | –
26 | O[C@@H](CN1[C@@H]2CC[C@H]1C/C(=C\c1ccccc1)C2)c1ccccc1 | 1.1 nM | 0.3 nM | 6.6 nM | –
27 | O[C@@H](CN1[C@@H]2CC[C@H]1C/C(=C/c1ccccc1)C2)c1ccc(F)cc1 | 29 nM | – | 47 nM | –
28 | O[C@@H](CN1[C@@H]2CC[C@H]1C[C@H](Cc1ccc(F)cc1)C2)c1ccc(F)cc1 | 5.9 nM | 25 nM | 15 nM | –
29 | O[C@@H](CN1[C@@H]2CC[C@H]1C[C@H](Cc1ccccc1)C2)c1ccccc1 | 21 nM | 7 nM | 14 nM | –
30 | O[C@@H](CN1[C@@H]2CC[C@H]1C/C(=C\c1ccc(Cl)cc1)C2)c1ccccc1 | 4.4 nM | 2.7 nM | 15 nM | –
